Patent publication EP1043020A1, “MEDICINAL COMPOSITION FOR PERCUTANEOUS ADMINISTRATION” (priority 1997, dated 1999)
Where two headings read alike, the source gives them in different places.

Columns and labels:
[1] = not given; remark: listed apart in the source
[2] = in vitro skin permeability test in pig; format: in vitro ADME, Yucatan miniature pig

CC(=N)N1CC[C@H](Oc2ccc([C@H](Cc3ccc4ccc(C(=N)N)cc4c3)C(=O)O)cc2)C1.Cl.O.O.O.O.O [compound A, (2S)-2-[4-[((3S)-1-acetimidoyl-3-pyrrolidinyl)oxy]phenyl]-3-(7-amidino-2-naphthyl)propionic acid hydrochloride pentahydrate]
Q48 (cumulative skin permeation amount of compound A per unit area for 48 hours) (human skin (2): horny, epidermal, dermal and some fat layers, approximately 1 mm, freeze-stored, thawed, fat removed, donor: compound A 50 mg/mL with enhancer, mean ± S.E., n=2 or 3): (2) 3 ± 1 µg/cm^2
Percutaneous absorption enhancing effect (human skin (2), ratio of Q48 of compound A with enhancer to that without enhancer (3 ± 1)): 1.0
Percutaneous absorption enhancing effect [1]: 1.0
Q24 (cumulative skin permeation amount of compound A per unit area for 24 hours) [1]: 709.05 ± 76.18 µg/cm^2
Percutaneous absorption enhancing effect [2]: 1.0
